Five molecules from patent US4193997A, “Thieno[2,3-c] and [3,2-c]pyridines, process for their preparation and therapeutic applications thereof” (Parcor, priority 1977, dated 1980) can be followed below.

Test [1] has as its system carrageenin-induced edema. Briefly: Localized carrageenin-induced edema method. Conditions: rats, 100 mg/kg oral one hour before, with, and 1 and 2.5 hours after carrageenin. The class given is in vivo. The method, then: 0.1 ml of a 1% carrageenin solution is injected at time O in the metatarsal flexor muscles of the right hind limb of rats.
The animals of the treated group are additionally orally administered 100 mg/kg of the test derivative, respectively one hour prior to, and then simultaneously with the phlogogenic agent, and then one hour and 2.5 hours thereafter. The determinations effected with a ROCH micrometer at times 0, 1 hr, 2 hrs, 3 hrs and 5 hrs after carrageenin administration make it possible to determine the percent anti-inflammatory activity, as a function of time.

For the next test, the system named is mice. Briefly: Antalgic action, acetic acid method according to Koster, Anderson & de Beer. The class given is in vivo. Particulars: 100 mg/kg oral, 30 minutes prior to i.p. acetic acid. From the text: (b) Acetic acid method, according to Koster, Anderson & de Beer (Fed. Proced., 18, 1959, 412, 1, 626)
Intraperitoneal injection of a dilute acetic acid solution induces, in mice, characteristic writhing movements which are repeated due to the effect of pain.

The subject of a further test is mouse. Briefly: Antalgic action, mechanical stimulation method according to Haffner. Particulars: 100 mg/kg oral. It is filed as in vivo. The protocol: (a) Mechanical stimulation method according to Haffner (Deutsch. Wish., 1959, 55, 731-733). This method comprises placing a pressure forceps at the base of the tail of a mouse and recording the number of bites self-inflicted by the animal in its endeavour to remove the forceps. The decrease of the number of bites prior and subsequent to oral administration of the test compound at a dosage of 100 mg/kg provides a measure of the antalgic activity of the derivatives of this invention.

Test [2] has as its system collagen-induced blood-platelet aggregation. Briefly: Collagen-induced blood-platelet aggregation after oral treatment of rats. Particulars: Rattus norvegicus, 100 mg/kg oral, 3 hrs after treatment, collagen (bovine tendon extract), read-out: Percent inhibition of blood-platelet aggregation, Collagen. The class given is in vivo, Wistar rats. The protocol:
(§1) Blood is taken from the jugular vein of Wistar rats. From this citrated blood, and after centrifugation, a plasma containing 600,000±20,000 blood-platelets per mm 3 is reconstituted, which plasma is used in all aggregation determinations.
(§2) 0.4 ml plasma is placed in a siliconized tube provided with a magnet bar which is also siliconized. The tube is introduced into an aggregometer connected to an apparatus which records the optical density variations. When light transmission reaches a stable value, 0.5 ml of a solution containing 10 μM A.D.P. (adenosine diphosphate) is introduced into the tube.
The A.D.P. solution is substituted with a collagen solution (bovine tendon extract).
(§3) Different groups of 20 rats each are used. Each group is orally administered a test derivative, at a dosage of 100 mg/kg. The results obtained during both tests are reported in following Table I which indicates the percent inhibition of blood-platelet aggregation obtained with respect to the reference group, 3 hrs after treatment.

Test [3] concerns ovalbumin-induced systemic edema. The test can be described thus: Ovalbumin-induced systemic edema method. It is filed as in vivo. Conditions: rats, 100 mg/kg oral one hour before and with ovalbumin. The method, then: Rats are administered a simultaneous intraperitoneal injection of 1 ml ovalbumin and 0.5 ml of a 1% aqueous Evans Blue solution. The animals of the treated group are additionally orally administered 100 mg/kg of the test derivative, one hour prior to ovalbumin administration and then simultaneously with said ovalbumin administration. The intensity of the phenomenon thus induced is rated according to a scale from 1 to 5, according to the progress of the inflammatory syndrome. The determinations are effected after 2 hours and after 3 hours. Thus are determined the mean intensity of the edema and the percent decrease of the edema reaction.

Test [4] concerns A.D.P.-induced blood-platelet aggregation. Briefly: A.D.P.-induced blood-platelet aggregation after oral treatment of rats. It is filed as in vivo, Wistar rats. Particulars: Rattus norvegicus, 100 mg/kg oral, 3 hrs after treatment, 10 μM A.D.P. solution, read-out: Percent inhibition of blood-platelet aggregation, A.D.P. The protocol:
as §1, §2
Blood-platelet aggregation then induces an increase of light transmission, followed by a decrease subsequent to the disaggregation stage.
The maximal optical density variation thus determined characterizes the extent of the aggregation.
as §3

Test [5] deals with Red blood cells. The test can be described thus: Anti-sludge in vitro, "preventive" treatment (protamine sulfate agglomeration of red blood cells). Particulars: for percent agglomerates formed by 5 RBC: controls 6 or 8; for percent agglomerates formed by 4 RBC: controls 9 or 8; for percent agglomerates formed by 3 RBC: controls 13 or 14; for percent agglomerates formed by 2 RBC: controls 17 or 16; for percent free red blood cells (size 1): controls 32 (n°3, 4, 6) or 30 (n°11, 12, 17). It is filed as cell-based, rats. The method, then:
(§4) Red blood cells of rats are washed three times and diluted to 1/250 concentration in physiological saline. In each of 5 tubes are placed 0.6 ml of this suspension and 0.2 ml physiological saline. Into each tube is then added, respectively, an amount of 0, 25, 50, 100 and 200 μg of the test derivative contained in 0.2 ml of solution. After incubation for one hour at 37° C., 0.2 ml of a solution containing 125 μg/ml protamine sulfate is added thereto, and the resulting material is further incubated for 0.5 hour at 37° C. The red blood cells of each tube are then examined with a Mallasez cell, and the percent free red blood cells (RBC) and the percent agglomerates formed by 2, 3, 4, 5 . . . RBC are noted.

Test [6] concerns Red blood cells. The test can be described thus: Anti-sludge in vitro, "curative" procedure (protamine sulfate agglomeration of red blood cells). The class given is cell-based, rats. Conditions: 25 μg. The method, then: as §4
The test was repeated according to a "curative" procedure. The red blood cells were first contacted with the protamine sulfate and, after incubation for 0.5 hour, 0.2 ml containing 25 μg of the test derivative were added thereto, after which the material was further incubated for one hour at 37° C.

In general, inhibition refers to the share of the control response that was lost under treatment. With `O=C1c2ccsc2CCN1Cc1ccccc1` [Derivative n°2, 4-Oxo-5-benzyl-4,5,6,7-tetrahydro-thieno[3,2-c]pyridine], in test [1], the “Percent anti-inflammatory activity after 1 hour” value came out at 36%, the “Percent anti-inflammatory activity after 2 hours” value came out at 47% and the “Percent anti-inflammatory activity After 3 hours” value is on record as 53%. This molecule yielded a percent antalgia in the test with mice of 68%. Moreover, in the test on mouse, the “mean percent antalgia after 30 min.” value came out at 71%, the “mean percent antalgia after 1 hr” value is 65%, the “mean percent antalgia after 2 hrs” value amounted to 58% and the “mean percent antalgia after 3 hrs” value came to 51%. The inhibition at 100 mg/kg in test [2] was 91.2%. For the same molecule, in test [3], the “Percent decrease of the edema reaction After 2 hours” value is 42% and the “Percent decrease of the edema reaction After 3 hours” value was found to be 50%. Further, the inhibition at 100 mg/kg in test [4] came to 61.5%.

Consider `CC(=O)N1CCc2sccc2C1=O` [Derivative n°5, 4-Oxo-5-acetyl-4,5,6,7-tetrahydro-thieno[3,2-c]pyridine], for which, in test [1], the “Percent anti-inflammatory activity after 1 hour” value amounted to 39%, the “Percent anti-inflammatory activity after 2 hours” value is listed as 51% and the “Percent anti-inflammatory activity After 3 hours” value was determined as 55%. The molecule further yielded a percent antalgia in the test on mice of 64%. In the test with mouse, the “mean percent antalgia after 30 min.” value was determined as 66%, the “mean percent antalgia after 1 hr” value came to 60%, the “mean percent antalgia after 2 hrs” value is given as 54% and the “mean percent antalgia after 3 hrs” value worked out at 48%. The inhibition at 100 mg/kg in test [2] was 92.6%. In test [3], the “Percent decrease of the edema reaction After 2 hours” value stood at 38% and the “Percent decrease of the edema reaction After 3 hours” value is listed as 47%. The inhibition at 100 mg/kg in test [4] was found to be 63.2%.

In the case of `O=C1NCCc2sccc21` [Derivative n°7, 4-Oxo-4,5,6,7-tetrahydro-thieno[3,2-c]pyridine], in test [1], the “Percent anti-inflammatory activity after 1 hour” value is given as 44%, the “Percent anti-inflammatory activity after 2 hours” value is on record as 55% and the “Percent anti-inflammatory activity After 3 hours” value stood at 63%. In the test with mice, this molecule returned a percent antalgia of 75%. Further, in the test with mouse, the “mean percent antalgia after 30 min.” value was 78%, the “mean percent antalgia after 1 hr” value was determined as 76%, the “mean percent antalgia after 2 hrs” value was determined as 72% and the “mean percent antalgia after 3 hrs” value is 64%. For the same molecule, the inhibition at 100 mg/kg in test [2] stood at 92.6%. In addition, in test [3], the “Percent decrease of the edema reaction After 2 hours” value came to 51% and the “Percent decrease of the edema reaction After 3 hours” value turned out to be 63%. Moreover, the inhibition at 100 mg/kg in test [4] stood at 62.3%.

In the case of `CC(=O)N1CCc2ccsc2C1=O` [Derivative n°11, 6-Acetyl-7-oxo-4,5,6,7-tetrahydro-thieno[2,3-c]-pyridine], in test [1], the “Percent anti-inflammatory activity after 1 hour” value was found to be 41%, the “Percent anti-inflammatory activity after 2 hours” value is listed as 50% and the “Percent anti-inflammatory activity After 3 hours” value is 58%. Besides, in the test with Red blood cells [5] (25 μg per tube), the “percent agglomerates formed by 5 RBC” value turned out to be 2%, the “percent agglomerates formed by 4 RBC” value was found to be 2%, the “percent agglomerates formed by 3 RBC” value stood at 14% and the “percent agglomerates formed by 2 RBC” value is 22%. The “percent free red blood cells (size 1)” value in the test with Red blood cells [5] (25 μg per tube) was found to be 60%. Besides, in the test with Red blood cells [5] (50 μg per tube), the “percent agglomerates formed by 5 RBC” value was found to be 1%, the “percent agglomerates formed by 4 RBC” value was determined as 2%, the “percent agglomerates formed by 3 RBC” value came to 10% and the “percent agglomerates formed by 2 RBC” value was determined as 22%. In the test with Red blood cells [5] (50 μg per tube), the “percent free red blood cells (size 1)” value amounted to 65%. In addition, in the test on Red blood cells [5] (100 μg per tube), the “percent agglomerates formed by 4 RBC” value is on record as 1%, the “percent agglomerates formed by 3 RBC” value stood at 5%, the “percent agglomerates formed by 2 RBC” value worked out at 13% and the “percent free red blood cells (size 1)” value was 81%. In addition, in the test with Red blood cells [5] (200 μg per tube), the “percent agglomerates formed by 4 RBC” value came out at 1%, the “percent agglomerates formed by 3 RBC” value was 2%, the “percent agglomerates formed by 2 RBC” value is 14% and the “percent free red blood cells (size 1)” value was 83%. Further, the percent antalgia with mice is listed as 71%. For the same molecule, in the test on mouse, the “mean percent antalgia after 30 min.” value came to 65%, the “mean percent antalgia after 1 hr” value was 61%, the “mean percent antalgia after 2 hrs” value is reported as 57% and the “mean percent antalgia after 3 hrs” value turned out to be 50%. Besides, the “percent aggregates, size of agglomerates 5” value with Red blood cells [6] (reference tests 8 or 9) was determined as 1%. The “percent aggregates, size of agglomerates 4” value with Red blood cells [6] (reference tests 11) turned out to be 2%. In the test with Red blood cells [6] (reference tests 15 or 16), the “percent aggregates, size of agglomerates 3” value turned out to be 4%. Also, the “percent aggregates, size of agglomerates 2” value in the test with Red blood cells [6] (reference tests 19) turned out to be 15%. Also, the “percent aggregates, size of agglomerates 1” value in the test on Red blood cells [6] (reference tests 33 (n°3, 4, 6) or 30 (n°11, 12, 17)) is listed as 78%. Further, the inhibition at 100 mg/kg in test [2] is 92.8%. In test [3], the “Percent decrease of the edema reaction After 2 hours” value is 45% and the “Percent decrease of the edema reaction After 3 hours” value was determined as 55%. Also, in test [4], the inhibition at 100 mg/kg stood at 63%.

On to `COc1cc(COC(=O)C2Cc3sccc3C(=O)N2Cc2cc(OC)c(OC)c(OC)c2)cc(OC)c1OC` (centres unmarked) [Derivative n°15, 4-Oxo-6-(3,4,5-trimethoxy-benzyloxycarbonyl)-5-(3,4,5-trimethoxybenzyl)-4,5,6,7-tetrahydro-thieno[3,2-c]pyridine], for which, in test [1], the “Percent anti-inflammatory activity after 1 hour” value is given as 40%, the “Percent anti-inflammatory activity after 2 hours” value is listed as 52% and the “Percent anti-inflammatory activity After 3 hours” value turned out to be 57%. The percent antalgia in the test with mice stood at 69%. In addition, in the test with mouse, the “mean percent antalgia after 30 min.” value is given as 73%, the “mean percent antalgia after 1 hr” value amounted to 67%, the “mean percent antalgia after 2 hrs” value was 63% and the “mean percent antalgia after 3 hrs” value came out at 56%. In test [2], the inhibition at 100 mg/kg was 91.6%. For the same molecule, in test [3], the “Percent decrease of the edema reaction After 2 hours” value is 48% and the “Percent decrease of the edema reaction After 3 hours” value is 58%. Further, the inhibition at 100 mg/kg in test [4] came out at 61.8%.
